# Assay results: patent publication US20190262355A1, “COMBINATION OF A BRD4 INHIBITOR AND AN ANTIFOLATE FOR THE THERAPY OF CANCER” (CeMM-Forschungszentrum für Molekulare Medizin GmbH, priority 2016, published 2019)
# No end group written: not given here.
# Experiments:
# WT-KBM7 cells = experiment: Cell cycle profile by PI staining and FACS (diploidization); assay type: cell-based, human; details: treated overnight during one week, PI incorporation and FACS (FIG. 6D)
# Description: For cell cycle analysis, 1 million cells were fixed with 70% ethanol for 24 hours, washed with PBS/1% BSA/0.1% Tween and incubated with RNase for 30 minutes. Nuclei were stained with 5 μg/ml PI (propidium iodide, Sigma) for 10 minutes prior to FACS analysis (BD FACSCalibur Flow Cytometer).
# The prerequisite for effective GT genetic screens is a haploid system where monoallelic disruptive GT integration results in gene knock-out (KO). Therefore, KBM7 cells, a chronic myeloid leukemia cell line with near haploid karyotype, were chosen for the generation of the BRD4 reporter cell lines as previously described^15. […] Propidium iodide (PI) incorporation and FACS analysis were used to assay the cell cycle profile of several REDS clones in order to select a haploid clone suitable for GT-based genetic screen. […] REDS1 was the only clonal cell line with haploid karyotype (see FIG. 6B), also confirmed by metaphase spreads (see FIG. 6C).
# [1] = target: T1, chromatin-associated MTHFD1 (Homo sapiens, UniProt P11586); experiment: Western blot of chromatin associated proteins: MTHFD1; assay type: cell-based; details: HAP1 cells, two-hour treatment, 0.5 μM (FIG. 2C)
# T1 construct: endogenous in cells; host or cells: HAP1
# T1 sequence (P11586 1-935): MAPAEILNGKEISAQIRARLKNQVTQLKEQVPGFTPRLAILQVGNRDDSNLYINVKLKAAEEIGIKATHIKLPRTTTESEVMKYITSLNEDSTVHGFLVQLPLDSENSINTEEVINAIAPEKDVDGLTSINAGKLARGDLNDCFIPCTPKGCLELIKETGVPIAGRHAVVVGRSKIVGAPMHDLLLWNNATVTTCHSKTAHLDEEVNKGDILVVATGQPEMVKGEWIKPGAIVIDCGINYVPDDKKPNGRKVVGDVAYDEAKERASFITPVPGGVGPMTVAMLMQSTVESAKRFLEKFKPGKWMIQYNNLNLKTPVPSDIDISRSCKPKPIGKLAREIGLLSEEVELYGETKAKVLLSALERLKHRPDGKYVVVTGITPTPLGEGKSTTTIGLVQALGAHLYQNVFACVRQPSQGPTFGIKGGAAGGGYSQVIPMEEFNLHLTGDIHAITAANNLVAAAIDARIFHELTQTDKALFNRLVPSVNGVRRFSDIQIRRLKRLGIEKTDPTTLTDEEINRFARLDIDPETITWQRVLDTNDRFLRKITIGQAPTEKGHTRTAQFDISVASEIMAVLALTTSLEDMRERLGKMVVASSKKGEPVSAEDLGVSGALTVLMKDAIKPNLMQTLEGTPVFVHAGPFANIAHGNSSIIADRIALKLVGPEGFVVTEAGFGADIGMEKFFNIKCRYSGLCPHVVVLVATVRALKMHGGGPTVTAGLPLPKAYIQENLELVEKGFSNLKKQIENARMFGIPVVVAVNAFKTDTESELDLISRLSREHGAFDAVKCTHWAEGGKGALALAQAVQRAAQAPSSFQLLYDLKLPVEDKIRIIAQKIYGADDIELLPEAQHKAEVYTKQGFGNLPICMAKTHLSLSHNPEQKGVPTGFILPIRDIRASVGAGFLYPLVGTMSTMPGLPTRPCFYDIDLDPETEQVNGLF
# Description: (§1) For Western Blot, proteins were separated on polyacrylamide gels with SDS running buffer (50 mM Tris, 380 mM Glycine, 7 mM SDS) and transferred to nitrocellulose blotting membranes. All membranes were blocked with blocking buffer (5% (m/v) milk powder (BioRad) in TBST (Tris-Buffered Saline with Tween: 50 mM Tris (tris (hydroxymethyl)aminomethane), 150 mM NaCl, 0.05% (v/v) Tween 20, adjusted to pH 7.6). Proteins were probed with antibodies against BRD4 (ab128874, 1:1000, Abcam), Actin (ab16039, 1:1000, Abcam), MTHFD1 (ab70203, Abcam; H120, Santa Cruz; A8, Santa Cruz; all used at 1:1000), GFP (G10362, 1:1000, Life Technology), RCC1 (C-20, 1:1000, Santa Cruz), β-Tubulin (T-4026, 1:1000, Sigma), SHMT1 (ab186130, 1:1000, Abcam) and H2B (ab156197, 1:1000, Abcam) and detected by HRP (horseradish peroxidase) conjugated donkey anti-rabbit IgG antibody (ab16284, 1:5000, Abcam) or donkey anti-mouse IgG antibody (Pierce) and visualized with the Pierce ECL Western Blotting substrate (Amersham), according to the provided protocol.
# Cell fractionation and chromatin enrichment was carried out as previously described^29 with some adaptations. […]
# [2] = system: MTHFD1 nuclear localization; experiment: Nuclear vs cytosol fractionation Western blot in HAP1 cells; assay type: cell-based, human; details: 72 hours (FIG. 9D)
# Description: as §1
# [3] = system: MTHFD1 binding to genomic loci; experiment: ChIP-Seq of MTHFD1 genomic binding in HAP1 cells; assay type: cell-based, human; details: 2 h treatment (1 μM per FIG. 16A)
# Description: Three 15 cm dishes with cells at 70-80% of confluency were used for one ChIP experiment. Briefly, cells were cross-linked with 1% formaldehyde for 10 minutes at room temperature, and then quenched with 125 mM glycine for 5 minutes at room temperature. Then, cells were washed with cold PBS, collected in 15 ml tubes and washed again with cold PBS by centrifugation at 1200 rpm for 5 minutes at 4° C. and finally snap frozen.
# ChIP was performed as described^18 by using BRD4 (Bethyl Laboratories, Inc.) and MTHFD1 (sc-271413, Santa Cruz) antibodies. In brief, crosslinked cell lysates were sonicated in order to shred the chromatin into 200-500 bp fragments. Fragmented chromatin was incubated overnight at 4° C. with antibodies, followed by 2 hours at 4° C. with pre-blocked Dynabeads Protein G (ThermoFisher Scientific). […]
# Reads containing adapters were trimmed using Skewer^19 and aligned to the hg19/GRCh37 assembly of the Human genome using Bowtie2^20 with the “—very-sensitive” parameter and duplicate reads were marked and removed with sambamba. Library quality was assessed with the phantomPeakQualtools scripts^21. For visualization exclusively, the inventors generated genome browser tracks with the genomeCoverageBed command in BEDTools^22 and normalized such that each value represents the read count per base pair per million mapped and filtered reads. […]
# GST-BRD4 (full length) = target: T2, GST-BRD4 (full length) (Homo sapiens, UniProt O60885); experiment: AlphaLISA assay of acetylated MTHFD1 peptides with GST-BRD4; assay type: binding
# T2 construct: AlphaLISA assay performed with the indicated MTHFD1 acetylated peptides and GST-BRD4 (full length); made in house
# Description: The Amplified Luminescent Proximity Homogenous Assay (AlphaLISA©), a homogenous and chemiluminescence-based method, was performed to explore the direct interaction of BRD4 and acetylated substrates.
# Briefly, in this assay, the biotinylated MTHFD1 acetylated peptides (possible substrates) are captured by streptavidin-coupled donor beads. GST-tagged BRD4 (produced as previously described^15) is recognized and bound by an anti-GST antibody conjugated with an acceptor bead. In case of interaction between BRD4 and one acetylated peptide, the proximity between the partners (<200 nm) allows that the excitation (680 nm wavelength) of a donor bead induces the release of a singlet oxygen molecule (^1O2) that then triggers a cascade of energy transfer in the acceptor bead, resulting in a sharp peak of light emission at 615 nm.
# GST-BRD4 and each of the MTHFD1 acetylated peptides were incubated together. After 30 minutes, GSH (Glutathione) Acceptor beads (PerkinElmer) were added and after another incubation time of 30 minutes, Streptavidin-conjugated donor beads (PerkinElmer) were added. The signal (alpha counts) was read by the EnVision 2104 Multilabel Reader (PerkinElmer).
# BRD4-MTHFD1 interaction = target: T3, BRD4-MTHFD1 interaction (Homo sapiens, UniProt O60885+P11586); experiment: MTHFD1 pull-down on HAP1 whole cell lysates (BRD4-MTHFD1 interaction); assay type: binding; details: HAP1 whole cell lysates treated with 50 μM (FIG. 9I)
# T3 construct: MTHFD1 pull-down performed on HAP1 whole cell lysates treated with 50 μM (S)-JQ1, MTX; endogenous in cells; host or cells: HAP1
# Description: For immunoprecipitation, 1 mg of protein extract was incubated overnight at 4° C. with 10 μl of Dynabeads (either A or G, Life technology) preincubated for 2 hours at 4° C. with 1 μg of BRD4 (ab128874, Abcam), MTHFD1 (A8, Santa Cruz) or GFP (G10362, Life Technology) antibodies.
compound,measurement,setting,value
Cc1sc2c(c1C)C(c1ccc(Cl)cc1)=N[C@H](CC(=O)OC(C)(C)C)c1nnc(C)n1-2 [(R)-JQ1],diploidization of WT-KBM7 (cell cycle profile),WT-KBM7 cells,Only (S)-JQ1 treatment induced WT-KBM7 diploidization
Cc1sc2c(c1C)C(c1ccc(Cl)cc1)=N[C@@H](CC(=O)NCCCCNC(=O)COc1cccc3c1C(=O)N(C1CCC(=O)NC1=O)C3=O)c1nnc(C)n1-2 (some centres unmarked) [dBET1],MTHFD1 on chromatin after degronimid treatment,[1],MTHFD1 was lost from chromatin
ginkgolic acid,redistribution of MTHFD1 between nucleus and cytoplasm,[2],did not cause a redistribution of MTHFD1 between the nucleus and cytoplasm
Cc1sc2c(c1C)C(c1ccc(Cl)cc1)=N[C@@H](CC(=O)NCCCCCCCCNC(=O)COc1cccc3c1C(=O)N(C1CCC(=O)NC1=O)C3=O)c1nnc(C)n1-2 (some centres unmarked) [dBET6],MTHFD1 on chromatin after degronimid treatment,[1],MTHFD1 was lost from chromatin
same,MTHFD1 binding to distinct genomic loci,[3],binding was lost
"MTHFD1(47-66)K56ac: synthetic biotinylated MTHFD1 peptide, residues 47-66, acetylated at lysine 56 (DDSNLYINVK(Ac)LKAAEEIGIK; also: biotinylated, site not given here; UniProt P11586 47-66, looked up, fragment)",increase of the alphaLISA signal,GST-BRD4 (full length); peptide used at high concentration (FIG. 9F),~5 fold
same,alphaLISA peptide titration with GST-BRD4,GST-BRD4 (full length); titration (FIG. 9G),dose-responsive manner
same,effect on BRD4-MTHFD1 interaction in MTHFD1 pull-down,BRD4-MTHFD1 interaction,not able to inhibit the BRD4-MTHFD1 interaction
